Laboratory results as given in US7507729B2, “Substituted imidazo-[1,5-a][1,2,4]triazolo[1,5-d][1,4] benzodiazepine derivatives” (priority 2005, dated 2009).
Where a name gives a salt, the structure may show the parent alone. Read-outs that look alike come from different tables or passages of the source.

Legend:
[1] = target: T1, GABA A receptor α5β3γ2 (hα5) (Homo sapiens, UniProt P18507+P31644); experiment: [3H]flumazenil competition binding, membranes of HEK293 cells expressing human GABA A α5β3γ2
T1 construct: expressed in transfected cells; host or cells: HEK293, transiently transfected; membranes
Description: (§1) The affinity of compounds at GABA A receptor subtypes was measured by competition for [^3H]flumazenil (85 Ci/mmol; Roche) binding to HEK293 cells expressing rat (stably transfected) or human (transiently transfected) receptors of composition α1β3γ2, α2β3γ2, α3β3γ2 and α5β3γ2.
(§2) Cell pellets were suspended in Krebs-tris buffer (4.8 mM KCl, 1.2 mM CaCl2, 1.2 mM MgCl2, 120 mM NaCl, 15 mM Tris; pH 7.5; binding assay buffer), homogenized by polytron for ca. 20 sec on ice and centrifuged for 60 min at 4° C. (50000 g; Sorvall, rotor: SM24=20000 rpm). The cell pellets were resuspended in Krebs-tris buffer and homogenized by polytron for ca. 15 sec on ice. Protein was measured (Bradford method, Bio-Rad) and aliquots of 1 mL were prepared and stored at −80° C.
(§3) Radioligand binding assays were carried out in a volume of 200 μL (96-well plates) which contained 100 μL of cell membranes, [^3H]flumazenil at a concentration of 1 nM for α1, α2, α3 subunits and 0.5 nM for α5 subunits and the test compound in the range of 10^−10-3×10^−6 M.
(§4) Nonspecific binding was defined by 10^−5 M diazepam and typically represented less than 5% of the total binding. Assays were incubated to equilibrium for 1 hour at 4° C. and harvested onto GF/C uni-filters (Packard) by filtration using a Packard harvester and washing with ice-cold wash buffer (50 mM Tris; pH 7.5). After drying, filter-retained radioactivity was detected by liquid scintillation counting. Ki values were calculated using Excel-Fit (Microsoft) and are the means of two determinations.

[2] = target: T2, GABA A receptor α1β3γ2 (hα1) (Homo sapiens, UniProt P14867+P18507); experiment: [3H]flumazenil competition binding, membranes of HEK293 cells expressing human GABA A α1β3γ2
T2 construct: expressed in transfected cells; host or cells: HEK293, transiently transfected; membranes
Description: as §1, §2, §3, §4

[3] = [3H]flumazenil 0.5 nM, 1 hour at 4° C., means of two determinations, read-out: Ki[nM] hα5
[4] = [3H]flumazenil 1 nM, 1 hour at 4° C., means of two determinations, read-out: Ki[nM] hα1

| Molecule | Ki [1, 3] | Ki [2] | Ki [2, 4] | Ki [1] |
| --- | --- | --- | --- | --- |
| Cc1ncn2c1Cn1nc(Cc3ccccn3)nc1-c1ccccc1-2 [Example 261, 10-Methyl-6-(pyridine-2-ylmethyl)-9H-imidazo[1,5-a][1,2,4]triazolo[1,5-d][1,4]benzodiazepine] | 0.7 nM | 26.6 nM |  |  |
| Cc1ncn2c1Cn1nc(Cc3cccnc3)nc1-c1ccccc1-2 [Example 265, 10-Methyl-6-(pyridine-3-ylmethyl)-9H-imidazo[1,5-a][1,2,4]triazolo[1,5-d][1,4]benzodiazepine] | 0.62 nM | 39.3 nM |  |  |
| Cc1ncn2c1Cn1nc(Cc3ccncc3)nc1-c1ccccc1-2 [Example 267, 10-Methyl-6-(pyridine-4-ylmethyl)-9H-imidazo[1,5-a][1,2,4]triazolo[1,5-d][1,4]benzodiazepine] | 0.25 nM | 20.4 nM |  |  |
| Cc1ncn2c1Cn1nc(Cn3ccnc3)nc1-c1ccccc1-2 [Example 275, 6-(Imidazol-1-ylmethyl)-10-methyl-9H-imidazo[1,5-a][1,2,4]triazolo[1,5-d][1,4]benzodiazepine hydrochloride (1:1)] | 0.6 nM | 33.6 nM |  |  |
| CN1CCN(Cc2nc3n(n2)Cc2c(Cl)ncn2-c2ccc(Br)cc2-3)C1=O [Example 300, 3-Bromo-10-chloro-6-(3-methyl-2-oxo-imidazolidin-1-ylmethyl)-9H-imidazo[1,5-a][1,2,4]triazolo[1,5-d][1,4]benzodiazepine] | 0.7 nM | 62.1 nM |  |  |
| O=C1NCCN1Cc1nc2n(n1)Cc1c(Cl)ncn1-c1ccc(Br)cc1-2 [Example 301, 3-Bromo-10-chloro-6-(2-oxo-imidazolidin-1-ylmethyl)-9H-imidazo[1,5-a][1,2,4]triazolo[1,5-d][1,4]benzodiazepine] | 0.7 nM |  | 50.5 nM |  |
| O=C1CSC(=O)N1Cc1nc2n(n1)Cc1c(Cl)ncn1-c1ccc(Br)cc1-2 [Example 309, 3-Bromo-10-chloro-6-(2,4-dioxo-thiazolidin-3-ylmethyl)-9H-imidazo[1,5-a][1,2,4]triazolo[1,5-d][1,4]benzodiazepine] | 0.5 nM | 55.2 nM |  |  |
| O=C1CCC(=O)N1Cc1nc2n(n1)Cc1c(Cl)ncn1-c1ccc(Br)cc1-2 [Example 310, 3-Bromo-10-chloro-6-(2,5-dioxo-pyrrolidin-1-ylmethyl)-9H-imidazo[1,5-a][1,2,4]triazolo[1,5-d][1,4]benzodiazepine] | 0.7 nM |  | 69.7 nM |  |
| O=C1SCCN1Cc1nc2n(n1)Cc1c(Cl)ncn1-c1ccc(Br)cc1-2 [Example 312, 3-Bromo-10-chloro-6-(2-oxo-thiazolidin-3-ylmethyl)-9H-imidazo[1,5-a][1,2,4]triazolo[1,5-d][1,4]benzodiazepine] | 0.5 nM | 60 nM |  |  |
| C[C@H]1CN(Cc2nc3n(n2)Cc2c(Cl)ncn2-c2ccc(Br)cc2-3)C(=O)O1 [Example 314, 3-Bromo-10-chloro-6-((5S)-5-methyl-2-oxo-oxazolidin-3-ylmethyl)-9H-imidazo[1,5-a][1,2,4]triazolo[1,5-d][1,4]benzodiazepine] | 0.7 nM | 32.3 nM |  |  |
| O=C1OCCN1Cc1nc2n(n1)Cc1c(Cl)ncn1-c1ccc(Cl)cc1-2 [Example 316, 3,10-Dichloro-6-(2-oxo-oxazolidin-3-ylmethyl)-9H-imidazo[1,5-a][1,2,4]triazolo[1,5-d][1,4]benzodiazepine] |  |  | 116 nM | 0.9 nM |
| Cc1ncn2c1Cn1nc(Cn3ncccc3=O)nc1-c1cc(Br)ccc1-2 [Example 330, 3-Bromo-10-methyl-6-(6-oxo-6H-pyridazin-1-ylmethyl)-9H-imidazo[1,5-a][1,2,4]triazolo[1,5-d][1,4]benzodiazepine hydrochloride (1:1)] |  |  | 134 nM | 0.7 nM |
| Cc1noc(Cc2nc3n(n2)Cc2c(C)ncn2-c2ccc(Br)cc2-3)n1 [Example 349, 3-Bromo-10-methyl-6-(3-methyl-[1,2,4]oxadiazol-5-ylmethyl)-9H-imidazo[1,5-a][1,2,4]triazolo[1,5-d][1,4]benzodiazepine] |  |  | 469 nM | 0.9 nM |
| Cc1ncn2c1Cn1nc(Cn3ccccc3=O)nc1-c1ccccc1-2 [Example 378, 10-Methyl-6-(2-oxo-2H-pyridin-1-ylmethyl)-9H-imidazo[1,5-a][1,2,4]triazolo[1,5-d][1,4]benzodiazepine] | 0.6 nM | 42.1 nM |  |  |
| Ethyl 3-bromo-6-methoxymethyl-9H-imidazo[1,5-a][1,2,4]triazolo[1,5-d][1,4]benzodiazepine-10-carboxylate [Example 38] | 0.4 nM |  | 6.9 nM |  |
